Laboratory results reported in patent US11591318B2, “Bipyrazole derivatives as JAK inhibitors” (Incyte Corporation, priority 2013, dated 2023).
Counter-ions that a name gives are not always drawn.

System: human JAK1 (a.a. 837-1142)
Assay: In vitro JAK kinase assay (HTRF), JAK1
Type: biochemical
Settings: ratio of IC50 values at 1 mM ATP
Experimental: The catalytic activity of JAK1, JAK2 or JAK3 was assayed by measuring the phosphorylation of a biotinylated peptide. The phosphorylated peptide was detected by homogenous time resolved fluorescence (HTRF). […] Reactions were carried out at room temperature for 1 hour and then stopped with 20 μL 45 mM EDTA, 300 nM SA-APC, 6 nM Eu-Py20 in assay buffer (Perkin Elmer, Boston, Mass.). Binding to the Europium labeled antibody took place for 40 minutes and HTRF signal was measured on a Fusion plate reader (Perkin Elmer, Boston, Mass.).

JAK2/JAK1, >10:
Cc1[nH]ncc1-c1cnn(C2(CC#N)CN(c3cnc(C(=O)N[C@@H](C)C(F)(F)F)cn3)C2)c1 [Example 1, 5-[3-(Cyanomethyl)-3-(3′-methyl-1H,1′H-4,4′-bipyrazol-1-yl)azetidin-1-yl]-N-[(1S)-2,2,2-trifluoro-1-methylethyl]pyrazine-2-carboxamide trifluoroacetate]
Cc1n[nH]cc1-c1cnn(C2(CC#N)CN(c3cnc(C(=O)NC(C)C)cn3)C2)c1 [Example 2, 5-[3-(Cyanomethyl)-3-(3′-methyl-1H,1′H-4,4′-bipyrazol-1-yl)azetidin-1-yl]-N-isopropylpyrazine-2-carboxamide trifluoroacetate]
C[C@H](NC(=O)c1cc(F)c(N2CC(CC#N)(n3cc(-c4cn[nH]c4)cn3)C2)cc1F)C(F)(F)F [Example 5, 4-[3-(1H,1′H-4,4′-Bipyrazol-1-yl)-3-(cyanomethyl)azetidin-1-yl]-2,5-difluoro-N-[(1S)-2,2,2-trifluoro-1-methylethyl]benzamide trifluoroacetate]
Cc1n[nH]cc1-c1cn(C2(CC#N)CN(c3cnc(C(=O)NC(C)C)cn3)C2)nc1C [Example 6, 5-[3-(Cyanomethyl)-3-(3,3′-dimethyl-1H,1′H-4,4′-bipyrazol-1-yl)azetidin-1-yl]-N-isopropylpyrazine-2-carboxamide trifluoroacetate]
